This note sets out measurements from patent publication US11364220B2, “Compounds and methods for inhibiting CPY26 enzymes” (Queen's University at Kingston, priority 2016, dated 2022).

Broadly, the IC50 is the concentration that inhibits the measured activity by half.

Like-named read-outs stand apart in the source and are kept apart here.

The target in one assay is CYP26A1 (Homo sapiens (Human), UniProt O43174). Nature of the assay: Cell-based inhibitor assay, [H]-RA metabolism in CYP26A1 stably transfected HeLa cells. Conditions: for IC50: CYP26A1 transfected HeLa cells, 3 hours at 37° C., inhibition of all trans-RA metabolism, read-out: IC50 26A1; for inhibition of CYP26A1-mediated RA metabolism compared with ketoconazole (in words): see IC50 values in Table 2. The procedure:
(§1) CYP26A1 or CYP26B1 stably transfected HeLa cells were maintained in Minimum Essential Medium (MEM) containing 10% fetal bovine serum (FBS) and 100 μg/mL hygromycin. Exponentially growing cells were harvested by incubation in trypsin. Cells were then collected and re-plated in 48-well culture plates at 5×10^5 cells in 0.2 mL of culture medium containing 0.05 μCi [H]-RA in the presence or absence of increasing concentrations of a test compound. The test compounds were diluted in dimethyl sulfoxide (DMSO) and then added in duplicate to wells at 0.01, 0.1, 1, 10 and 100 μM final concentration. […] Cells were incubated for 3 hours at 37° C. Retinoids were then extracted using the procedure of Bligh, et al., (1959), Canadian Journal of Biochemistry 37, 911-917, which was modified by using dichloromethane instead of chloroform. Each sample's water soluble radioactivity level was quantified using a β-scintillation counter (using Ecolume scintillation fluid, available from MP Biomedicals of Solon, Ohio, USA).

In assay [1] the test system is RA sensitive reporter construct pCYP26A1-luc in MCF-7 cells. Nature of the assay: Retinoid activity assay, RA sensitive pCYP26A1-luc reporter in MCF-7 cells. The class given is cell-based. The settings on record: 24 hours, firefly relative to Renilla luciferase. From the text:
This retinoid activity assay measures the ability of test compounds to induce expression of a transiently transfected RA sensitive reporter construct. In this assay, MCF-7 cells are transfected with a construct comprising an upstream promoter of the CYP26A1 gene containing 2 RA response elements driving expression of firefly luciferase (pCYP26A1-luc). Since CYP26A1 is highly inducible by RA in these cells, this construct serves as a sensitive reporter of retinoid-like transcriptional activity.
MCF-7 cells were maintained in RPMI-1640 medium containing 10% FBS. Exponentially growing cells were harvested by incubation in trypsin. Cells were then collected and plated in 24-well plates at 50,000 cells/well. Once cells reached 80-90% confluence (e.g., the next day), cells were transfected with two plasmids. The first plasmid was CYP26A1-luc construct (375 ng). The second plasmid was a control plasmid comprising the Renilla luciferase gene driven by constitutive thymidine kinase promoter (pRL-tk) (25 ng). Transfection was performed using FuGene 6 transfection reagent (Promega) with a 1:3 ratio of DNA:FuGene. 24 hours after transfection, cells were treated with test compounds diluted in DMSO in triplicate at 0.1, 1 and 10 μM final concentrations. As a positive control for reporter activation, cells were also treated with RA diluted in DMSO at the same concentrations listed above. DMSO treatment alone served as a negative control. After 24 hours of treatment, cells were harvested in passive lysis buffer (Promega) and luciferase activity in cell lysates were read using a luminometer. Data are expressed as the activity of firefly luciferase relative to Renilla luciferase (see Table 3). For CYP26A1 inhibitor compounds, no activation of the reporter was detected, while the related retinoid-like compound induces luciferase expression.

The target of the next assay is CYP26B1 (Homo sapiens (Human), UniProt Q9NR63). Nature of the assay: Cell-based inhibitor assay, [H]-RA metabolism in CYP26B1 stably transfected HeLa cells. Conditions: for IC50: read-out: IC50 26B1. How it is done: as §1
The mark [2] stands for this setting: CYP26B1 transfected HeLa cells, 3 hours at 37° C., inhibition of all trans-RA metabolism.

Chain of CYP26A1 (O43174 whole entry, species assumed): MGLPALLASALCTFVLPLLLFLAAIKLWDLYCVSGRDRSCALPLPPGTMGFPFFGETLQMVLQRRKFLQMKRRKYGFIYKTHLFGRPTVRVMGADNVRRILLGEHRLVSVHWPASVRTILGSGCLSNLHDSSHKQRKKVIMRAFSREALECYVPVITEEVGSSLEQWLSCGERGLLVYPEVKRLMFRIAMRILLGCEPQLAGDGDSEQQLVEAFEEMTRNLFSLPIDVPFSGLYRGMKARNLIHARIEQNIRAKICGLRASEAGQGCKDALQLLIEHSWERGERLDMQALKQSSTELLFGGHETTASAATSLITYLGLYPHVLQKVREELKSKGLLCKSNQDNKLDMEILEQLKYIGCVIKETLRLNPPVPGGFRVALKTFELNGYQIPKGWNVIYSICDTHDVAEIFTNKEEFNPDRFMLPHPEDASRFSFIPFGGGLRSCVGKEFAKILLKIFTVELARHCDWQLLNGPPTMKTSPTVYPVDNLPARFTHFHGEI
Chain of CYP26B1 (Q9NR63 whole entry, species assumed): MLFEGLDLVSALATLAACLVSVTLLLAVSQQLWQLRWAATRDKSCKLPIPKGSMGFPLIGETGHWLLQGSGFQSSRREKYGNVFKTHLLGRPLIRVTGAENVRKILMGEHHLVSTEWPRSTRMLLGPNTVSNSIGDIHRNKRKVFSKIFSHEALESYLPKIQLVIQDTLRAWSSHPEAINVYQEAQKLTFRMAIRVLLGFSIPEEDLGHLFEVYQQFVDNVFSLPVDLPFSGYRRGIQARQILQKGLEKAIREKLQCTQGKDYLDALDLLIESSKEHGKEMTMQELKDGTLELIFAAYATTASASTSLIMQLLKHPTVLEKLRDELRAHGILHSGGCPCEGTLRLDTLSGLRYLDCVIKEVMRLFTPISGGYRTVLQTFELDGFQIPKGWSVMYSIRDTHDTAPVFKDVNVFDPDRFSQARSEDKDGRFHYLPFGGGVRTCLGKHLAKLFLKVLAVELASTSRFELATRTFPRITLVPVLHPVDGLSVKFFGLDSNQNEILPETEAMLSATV

In the case of `CC1(C)CCC(C)(C)c2cc(C(=O)Nc3ccc(CC(=O)O)cc3)ccc21` [Cmpd 01], the half-maximal inhibitory concentration (IC50) on CYP26A1 came out at 5.66 µM; at CYP26B1 (setting [2]), 8.81 µM. Besides, the “Luciferase Activity RLU Avg” value was 0.0041 RLU in assay [1] (0.1 μM), 0.0053 RLU in assay [1] (1 μM) and 0.0077 RLU in assay [1] (10 μM).

Turning to `Cc1cc2c(cc1C(=O)Nc1ccc(CC(=O)O)cc1)C(C)(C)CCC2(C)C` [Cmpd 02], the “inhibitory activity towards CYP26A1 (in words)” value against CYP26A1 is listed as “selective inhibitory activity towards CYP26A1”. Moreover, the IC50 at CYP26A1 turned out to be 0.83 µM; on CYP26B1 (setting [2]), 2.06 µM. For the same molecule, on CYP26A1, the “inhibition of CYP26A1-mediated RA metabolism compared with ketoconazole (in words)” value is given as “comparable to or better than ketoconazole”. In addition, the entries for the “Luciferase Activity RLU Avg” value in assay [1] (0.1 μM), in assay [1] (1 μM) and in assay [1] (10 μM) were 0.004 RLU, 0.0042 RLU and 0.0066 RLU, respectively. Moreover, the “inhibition of CYP26B1 enzyme (in words)” value against CYP26B1 is “None of the above compounds inhibited the CYP26B1 enzyme”.

For `CN(C(=O)c1ccc2c(c1)C(C)(C)CCC2(C)C)c1ccc(CC(=O)O)cc1` [Cmpd 03], the results for the IC50 on CYP26A1 and at CYP26B1 (setting [2]) were greater than 100 µM and 65.4 µM, respectively. The “Luciferase Activity RLU Avg” value was 0.0041 RLU in assay [1] (0.1 μM), 0.0039 RLU in assay [1] (1 μM) and 0.005 RLU in assay [1] (10 μM).

As to `C=C(Cc1ccc(NS(=O)(=O)c2ccc3c(c2)C(C)(C)CCC3(C)C)cc1)OC` [Cmpd 04A], the half-inhibitory concentration (IC50) on CYP26A1 stood at 14 µM.

Take `C=C(Cc1ccc(NS(=O)(=O)c2cc3c(cc2Br)C(C)(C)CCC3(C)C)cc1)OC` [Cmpd 04B]: the IC50 at CYP26A1 came to 8.24 µM.

Take `CC1(C)CCC(C)(C)c2cc(S(=O)(=O)Nc3ccc(CC(=O)O)cc3)ccc21` [Cmpd 04]: at CYP26A1, the “inhibitory activity towards CYP26A1 (in words)” value is “selective inhibitory activity towards CYP26A1”, the IC50 turned out to be 1.14 µM and the “inhibition of CYP26A1-mediated RA metabolism compared with ketoconazole (in words)” value is “comparable to or better than ketoconazole”. The “Luciferase Activity RLU Avg” value in assay [1] (0.1 μM) came to 0.0046 RLU. Besides, the “Luciferase Activity RLU Avg” value in assay [1] (1 μM) was 0.0035 RLU. The “inhibition of CYP26B1 enzyme (in words)” value against CYP26B1 is “None of the above compounds inhibited the CYP26B1 enzyme”. Moreover, the half-inhibitory concentration (IC50) on CYP26B1 (setting [2]) was 18.9 µM.

As for `CC1(C)CCOc2ccc(C(=O)Nc3ccc(CC(=O)O)cc3)cc21` [Cmpd 05], the half-inhibitory concentration (IC50) on CYP26A1 was determined as 39.7 µM; on CYP26B1 (setting [2]), 11.5 µM.

For `CC(C)c1cc2c(cc1C(=O)Nc1ccc(CC(=O)O)cc1)C(C)(C)CCC2(C)C` [Cmpd 06], on CYP26A1, the “inhibitory activity towards CYP26A1 (in words)” value is on record as “selective inhibitory activity towards CYP26A1”. The concentration for half-maximal inhibition (IC50) at CYP26A1 stood at 1.29 µM; on CYP26B1 (setting [2]), 42.3 µM. In addition, the “inhibition of CYP26A1-mediated RA metabolism compared with ketoconazole (in words)” value at CYP26A1 is “comparable to or better than ketoconazole”. Further, the “Luciferase Activity RLU Avg” value in assay [1] (0.1 μM) is 0.0021 RLU; in assay [1] (1 μM), 0.002 RLU; in assay [1] (10 μM), 0.0018 RLU. In addition, the “inhibition of CYP26B1 enzyme (in words)” value at CYP26B1 was “None of the above compounds inhibited the CYP26B1 enzyme”.

Regarding `Cc1cc2c(cc1S(=O)(=O)Nc1ccc(CC(=O)O)cc1)C(C)(C)CCC2(C)C` [Cmpd 07], the entries for the “Luciferase Activity RLU Avg” value in assay [1] (0.1 μM), in assay [1] (1 μM) and in assay [1] (10 μM) were 0.0016 RLU, 0.0019 RLU and 0.0011 RLU, respectively.

`C=C(Cc1ccc(NS(=O)(=O)c2ccc3c(c2)C(C)(C)CCC3(C)C)cc1F)OC` [Cmpd 09A]: on CYP26A1, the half-inhibitory concentration (IC50) was determined as 80.5 µM.

In the case of `Cc1cc(S(=O)(=O)Nc2ccc(CC(=O)O)cc2)cc2c1OC(C)(C)CC2(C)C` [Cmpd 21], at CYP26A1, the “inhibitory activity towards CYP26A1 (in words)” value is recorded as “selective inhibitory activity towards CYP26A1”, the 50% inhibitory concentration (IC50) was 1.9 µM and the “inhibition of CYP26A1-mediated RA metabolism compared with ketoconazole (in words)” value is “comparable to or better than ketoconazole”. Further, on CYP26B1, the “inhibition of CYP26B1 enzyme (in words)” value was “None of the above compounds inhibited the CYP26B1 enzyme” and the half-maximal inhibitory concentration (IC50) was determined as 21.8 µM.
